Measurements reported in patent US20250145665A1, “MACROCYCLIC PEPTIDES USEFUL AS MODULATORS OF TNF ALPHA” (Bristol-Myers Squibb Company, priority 2023, published 2025).
Like-named read-outs stand apart in the source and are kept apart here. Starred links: 1 amine or outer side, 2 acyl side, 3 side chain; linkers in the order of their positions; H or OH if unused. Positions of bridges follow the written chain, without caps; N, C: chain ends. Non-standard residues stand in square brackets, D forms with d. Residues, ends and D or L forms follow the SMILES beside them. *: point of attachment. Bip(4'-NHCO-C6H4-3-CH2COOH) = N[C@@H](Cc1ccc(-c2ccc(NC(=O)c3cccc(CC(=O)O)c3)cc2)cc1)C(=O)O; Bip(4'-NHCO-C6H4-4-CH2COOH) = N[C@@H](Cc1ccc(-c2ccc(NC(=O)c3ccc(CC(=O)O)cc3)cc2)cc1)C(=O)O; dArg(Nω-CH2C6H4-3-CH2Gua) = N=C(N)NCc1cccc(CNC(=N)NCCC[C@@H](N)C(=O)O)c1; X21 = N=C(NCCC[C@@H](N[*:1])C(=O)[*:2])NC[C@H](O)[C@@H](O)[C@@H](O)CO; Bip(4'-NH) = O=C([C@H](Cc1ccc(-c2ccc(N[*:3])cc2)cc1)N[*:1])[*:2]; dArg(ω-(3-HO-benzyl)) = N=C(NCCC[C@@H](N)C(=O)O)NCc1cccc(O)c1; Indazole3carbonyl(1-CH2COOH) = O=C(O)Cn1nc(C(=O)*)c2ccccc21; Bip(4'-COOH) = N[C@@H](Cc1ccc(-c2ccc(C(=O)O)cc2)cc1)C(=O)O; dArg(ω-Bn) = N=C(NCCC[C@@H](N)C(=O)O)NCc1ccccc1; Ala(morpholin-4-yl) = N[C@@H](CN1CCOCC1)C(=O)O; Benzoyl(3-OCH2COOH) = O=C(O)COc1cccc(C(=O)*)c1; Phe(3-CONH2) = NC(=O)c1cccc(C[C@H](N)C(=O)O)c1; Bip = N[C@@H](Cc1ccc(-c2ccccc2)cc1)C(=O)O; 2Pal = N[C@@H](Cc1ccccn1)C(=O)O; 2Thi = N[C@@H](Cc1cccs1)C(=O)O; Cha = N[C@@H](CC1CCCCC1)C(=O)O; Tle = CC(C)(C)[C@H](N)C(=O)O; Sar = CNCC(=O)O

Molecular target: TNFα (Homo sapiens, UniProt P01375)
Sequence (P01375 77-233 limits assumed): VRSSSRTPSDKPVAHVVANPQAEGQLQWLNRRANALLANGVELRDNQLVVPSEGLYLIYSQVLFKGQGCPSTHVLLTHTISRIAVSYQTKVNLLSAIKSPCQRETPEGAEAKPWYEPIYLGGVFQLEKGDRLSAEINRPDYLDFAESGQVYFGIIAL
Assay: TNF-Induced HEK-Blue Assay
Assay type: cell-based
[1] = HEK-Blue-CD40L cells, NF-kB-driven secreted alkaline phosphatase reporter, TNFα 0.5 ng/ml, 18 h, read-out: TNF induced HEK-Blue assay IC50 value

Method: TNFα (final concentration 0.5 ng/ml) or CD40L (final concentration 30 ng/ml) in assay buffer [DMEM, 4.5 g/l glucose (Gibco, Cat. 21063-029), 10% FBS (Sigma, F4135), 1% Penicillin-Streptomycin (Gibco, Cat. 15140-122), 1% Anti-Anti (Gibco, Cat. 15240-112) and 2 mM L-glutamine (Gibco, Cat. 25030-081)] was then added to the assay plate. After a 30 minute pre-incubation at 37° C. and 5% CO2, HEK-Blue™-CD40L cells (INVIVOGEN, Cat. Code hkb-cd40) containing a NF-kB-driven secreted alkaline phosphatase reporter gene were seeded into the assay plate at a density of 20,000 cells per well. This plate was then incubated for 18 h at 37° C. and 5% CO2. Secreted alkaline phosphatase expression was measured using QUANTI-Blue™ (INVIVOGEN, Cat. Code rep-qb1) according to manufacturer's specifications and the assay plate was read on a PerkinElmer Envision at 620 nm.
IC50 values were determined after correcting for background [(sample read-mean of low control)/(mean of high control-mean of low control)] where by the low control is DMSO without stimulation and high control is DMSO with stimulation.

Compound: CC(C)C[C@@H]1NC(=O)[C@H](Cc2cccs2)NC(=O)[C@H](C(C)C)NC(=O)[C@@H]2CCCN2C(=O)[C@H](C(C)C)NC(=O)[C@@H](CCCNC(=N)N)NC(=O)[C@H](CC(=O)O)NC(=O)[C@H](Cc2ccccn2)NC(=O)CN(C)C(=O)[C@H](Cc2ccc(-c3ccc(NC(=O)c4cccc(OCC(=O)O)c4)cc3)cc2)NC(=O)[C@H](Cc2ccc(-c3ccc(C(=O)O)cc3)cc2)NC(=O)[C@H](CC2CCCCC2)NC(=O)CSC[C@@H](C(=O)NCC(N)=O)NC1=O [Example 614] ({CH2CO}-[Cha][Bip(4'-COOH)][Bip(4'-NH)](Benzoyl(3-OCH2COOH))[Sar][2Pal]D[dR]VPV[2Thi]LCG-NH2; thioether N-13)
- IC50 [1]: 50 to 200 nM

Compound: CC(C)C[C@@H]1NC(=O)[C@H](Cc2cccs2)NC(=O)[C@H](C(C)C)NC(=O)[C@@H]2CCCN2C(=O)[C@H](C(C)C)NC(=O)[C@@H](CCCNC(=N)N)NC(=O)[C@H](CC(=O)O)NC(=O)[C@H](Cc2ccccn2)NC(=O)CN(C)C(=O)[C@H](Cc2ccc(-c3ccc(NC(=O)c4cccc(OCC(=O)O)c4)cc3)cc2)NC(=O)[C@H](Cc2ccc(-c3ccc(C(=O)O)cc3)cc2)NC(=O)[C@H](C(C)(C)C)NC(=O)CSC[C@@H](C(=O)NCC(N)=O)NC1=O [Example 615] ({CH2CO}-[Tle][Bip(4'-COOH)][Bip(4'-NH)](Benzoyl(3-OCH2COOH))[Sar][2Pal]D[dR]VPV[2Thi]LCG-NH2; thioether N-13)
- IC50 [1]: 50 to 200 nM

Compound: CC(C)C[C@@H]1NC(=O)[C@H](Cc2cccs2)NC(=O)[C@H](C(C)C)NC(=O)[C@@H]2CCCN2C(=O)[C@H](C(C)C)NC(=O)[C@@H](CCCNC(=N)N)NC(=O)[C@H](CC(=O)O)NC(=O)[C@H](Cc2ccccn2)NC(=O)CN(C)C(=O)[C@H](Cc2ccc(-c3ccc(NC(=O)c4cccc(OCC(=O)O)c4)cc3)cc2)NC(=O)[C@H](Cc2ccc(-c3ccccc3)cc2)NC(=O)[C@H](CC2CCCCC2)NC(=O)CSC[C@@H](C(=O)NCC(N)=O)NC1=O [Example 616] ({CH2CO}-[Cha][Bip][Bip(4'-NH)](Benzoyl(3-OCH2COOH))[Sar][2Pal]D[dR]VPV[2Thi]LCG-NH2; thioether N-13)
- IC50 [1]: 50 to 200 nM

Compound: CC(C)C[C@@H]1NC(=O)[C@H](Cc2cccs2)NC(=O)[C@H](C(C)C)NC(=O)[C@@H]2CCCN2C(=O)[C@H](C(C)C)NC(=O)[C@@H](CCCNC(=N)N)NC(=O)[C@H](CC(=O)O)NC(=O)[C@H](Cc2ccccn2)NC(=O)CN(C)C(=O)[C@H](Cc2ccc(-c3ccc(NC(=O)c4ccc(CC(=O)O)cc4)cc3)cc2)NC(=O)[C@H](Cc2ccc(-c3ccccc3)cc2)NC(=O)[C@H](CC2CCCCC2)NC(=O)CSC[C@@H](C(=O)NCC(N)=O)NC1=O [Example 617] ({CH2CO}-[Cha][Bip][Bip(4'-NHCO-C6H4-4-CH2COOH)][Sar][2Pal]D[dR]VPV[2Thi]LCG-NH2; thioether N-13)
- IC50 [1]: < 50 nM

Compound: CC(C)C[C@@H]1NC(=O)[C@H](Cc2cccs2)NC(=O)[C@H](C(C)C)NC(=O)[C@@H]2CCCN2C(=O)[C@H](C(C)C)NC(=O)[C@@H](CCCNC(=N)N)NC(=O)[C@H](CC(=O)O)NC(=O)[C@H](Cc2ccccn2)NC(=O)CN(C)C(=O)[C@H](Cc2ccc(-c3ccc(NC(=O)c4cccc(CC(=O)O)c4)cc3)cc2)NC(=O)[C@H](Cc2ccc(-c3ccccc3)cc2)NC(=O)[C@H](CC2CCCCC2)NC(=O)CSC[C@@H](C(=O)NCC(N)=O)NC1=O [Example 618] ({CH2CO}-[Cha][Bip][Bip(4'-NHCO-C6H4-3-CH2COOH)][Sar][2Pal]D[dR]VPV[2Thi]LCG-NH2; thioether N-13)
- IC50 [1]: 50 to 200 nM

Compound: CC(C)C[C@@H]1NC(=O)[C@H](Cc2cccc(C(N)=O)c2)NC(=O)[C@H](C(C)C)NC(=O)[C@@H]2CCCN2C(=O)[C@H](C(C)C)NC(=O)[C@@H](CCCNC(=N)NCc2cccc(CNC(=N)N)c2)NC(=O)[C@H](CC(=O)O)NC(=O)[C@H](Cc2ccc(O)cc2)NC(=O)CN(C)C(=O)[C@H](Cc2ccc(-c3ccc(NC(=O)c4nn(CC(=O)O)c5ccccc45)cc3)cc2)NC(=O)[C@H](Cc2ccc(-c3ccccc3)cc2)NC(=O)[C@H](CN2CCOCC2)NC(=O)CSC[C@@H](C(=O)NCC(N)=O)NC1=O [Example 620] ({CH2CO}-[Ala(morpholin-4-yl)][Bip][Bip(4'-NH)](Indazole3carbonyl(1-CH2COOH))[Sar]YD[dArg(Nω-CH2C6H4-3-CH2Gua)]VPV[Phe(3-CONH2)]LCG-NH2; thioether N-13)
- IC50: < 50 nM

Compound: CC(C)C[C@@H]1NC(=O)[C@H](Cc2cnc[nH]2)NC(=O)[C@H](C(C)C)NC(=O)[C@@H]2CCCN2C(=O)[C@H](C(C)C)NC(=O)[C@@H](CCCNC(=N)NCc2cccc(CNC(=N)N)c2)NC(=O)[C@H](CC(=O)O)NC(=O)[C@H](Cc2ccccn2)NC(=O)CN(C)C(=O)[C@H](Cc2ccc(-c3ccc(NC(=O)c4nn(CC(=O)O)c5ccccc45)cc3)cc2)NC(=O)[C@H](Cc2ccc(-c3ccccc3)cc2)NC(=O)[C@H](CN2CCOCC2)NC(=O)CSC[C@@H](C(=O)NCC(N)=O)NC1=O [Example 621] ({CH2CO}-[Ala(morpholin-4-yl)][Bip][Bip(4'-NH)](Indazole3carbonyl(1-CH2COOH))[Sar][2Pal]D[dArg(Nω-CH2C6H4-3-CH2Gua)]VPVHLCG-NH2; thioether N-13)
- IC50: < 50 nM

Compound: CC(C)C[C@@H]1NC(=O)[C@H](Cc2ccc(O)cc2)NC(=O)[C@H](C(C)C)NC(=O)[C@@H]2CCCN2C(=O)[C@H](C(C)C)NC(=O)[C@@H](CCCNC(=N)NCc2cccc(CNC(=N)N)c2)NC(=O)[C@H](CC(=O)O)NC(=O)[C@@H]2CCCN2C(=O)CN(C)C(=O)[C@H](Cc2ccc(-c3ccc(NC(=O)c4nn(CC(=O)O)c5ccccc45)cc3)cc2)NC(=O)[C@H](Cc2ccc(-c3ccccc3)cc2)NC(=O)[C@H](CN2CCOCC2)NC(=O)CSC[C@@H](C(=O)NCC(N)=O)NC1=O [Example 622] ({CH2CO}-[Ala(morpholin-4-yl)][Bip][Bip(4'-NH)](Indazole3carbonyl(1-CH2COOH))[Sar]PD[dArg(Nω-CH2C6H4-3-CH2Gua)]VPVYLCG-NH2; thioether N-13)
- IC50: < 50 nM

Compound: CC(C)C[C@@H]1NC(=O)[C@H](Cc2cccs2)NC(=O)[C@H](C(C)C)NC(=O)[C@@H]2CCCN2C(=O)[C@H](C(C)C)NC(=O)[C@@H](CCCNC(=N)NCc2cccc(CNC(=N)N)c2)NC(=O)[C@H](CC(=O)O)NC(=O)[C@H](Cc2ccccn2)NC(=O)CN(C)C(=O)[C@H](Cc2ccc(-c3ccc(NC(=O)c4nn(CC(=O)O)c5ccccc45)cc3)cc2)NC(=O)[C@H](Cc2ccc(-c3ccccc3)cc2)NC(=O)[C@H](CN2CCOCC2)NC(=O)CSC[C@@H](C(=O)NCC(N)=O)NC1=O [Example 623] ({CH2CO}-[Ala(morpholin-4-yl)][Bip][Bip(4'-NH)](Indazole3carbonyl(1-CH2COOH))[Sar][2Pal]D[dArg(Nω-CH2C6H4-3-CH2Gua)]VPV[2Thi]LCG-NH2; thioether N-13)
- IC50: < 50 nM

Compound: CC(C)C[C@@H]1NC(=O)[C@H](Cc2cnc[nH]2)NC(=O)[C@H](C(C)C)NC(=O)[C@@H]2CCCN2C(=O)[C@H](C(C)C)NC(=O)[C@@H](CCCNC(=N)NCc2cccc(O)c2)NC(=O)[C@H](CC(=O)O)NC(=O)[C@H](Cc2ccccn2)NC(=O)CN(C)C(=O)[C@H](Cc2ccc(-c3ccc(NC(=O)c4nn(CC(=O)O)c5ccccc45)cc3)cc2)NC(=O)[C@H](Cc2ccc(-c3ccccc3)cc2)NC(=O)[C@H](CN2CCOCC2)NC(=O)CSC[C@@H](C(=O)NCC(N)=O)NC1=O [Example 624] ({CH2CO}-[Ala(morpholin-4-yl)][Bip][Bip(4'-NH)](Indazole3carbonyl(1-CH2COOH))[Sar][2Pal]D[dArg(ω-(3-HO-benzyl))]VPVHLCG-NH2; thioether N-13)
- IC50: < 50 nM

Compound: CC(C)C[C@@H]1NC(=O)[C@H](Cc2ccc(O)cc2)NC(=O)[C@H](C(C)C)NC(=O)[C@@H]2CCCN2C(=O)[C@H](C(C)C)NC(=O)[C@@H](CCCNC(=N)NCc2cccc(O)c2)NC(=O)[C@H](CC(=O)O)NC(=O)[C@@H]2CCCN2C(=O)CN(C)C(=O)[C@H](Cc2ccc(-c3ccc(NC(=O)c4nn(CC(=O)O)c5ccccc45)cc3)cc2)NC(=O)[C@H](Cc2ccc(-c3ccccc3)cc2)NC(=O)[C@H](CN2CCOCC2)NC(=O)CSC[C@@H](C(=O)NCC(N)=O)NC1=O [Example 625] ({CH2CO}-[Ala(morpholin-4-yl)][Bip][Bip(4'-NH)](Indazole3carbonyl(1-CH2COOH))[Sar]PD[dArg(ω-(3-HO-benzyl))]VPVYLCG-NH2; thioether N-13)
- IC50: < 50 nM

Compound: CC(C)C[C@@H]1NC(=O)[C@H](Cc2cccs2)NC(=O)[C@H](C(C)C)NC(=O)[C@@H]2CCCN2C(=O)[C@H](C(C)C)NC(=O)[C@@H](CCCNC(=N)NCc2cccc(O)c2)NC(=O)[C@H](CC(=O)O)NC(=O)[C@H](Cc2ccccn2)NC(=O)CN(C)C(=O)[C@H](Cc2ccc(-c3ccc(NC(=O)c4nn(CC(=O)O)c5ccccc45)cc3)cc2)NC(=O)[C@H](Cc2ccc(-c3ccccc3)cc2)NC(=O)[C@H](CN2CCOCC2)NC(=O)CSC[C@@H](C(=O)NCC(N)=O)NC1=O [Example 626] ({CH2CO}-[Ala(morpholin-4-yl)][Bip][Bip(4'-NH)](Indazole3carbonyl(1-CH2COOH))[Sar][2Pal]D[dArg(ω-(3-HO-benzyl))]VPV[2Thi]LCG-NH2; thioether N-13)
- IC50: 50 to 200 nM

Compound: CC(C)C[C@@H]1NC(=O)[C@H](CCCNC(=N)N)NC(=O)[C@H](C(C)C)NC(=O)[C@@H]2CCCN2C(=O)[C@H](C(C)C)NC(=O)[C@@H](CCCNC(=N)NC[C@H](O)[C@@H](O)[C@@H](O)CO)NC(=O)[C@H](CC(=O)O)NC(=O)[C@@H]2CCCN2C(=O)CN(C)C(=O)[C@H](Cc2ccc(-c3ccc(NC(=O)c4cccc(CC(=O)O)c4)cc3)cc2)NC(=O)[C@H](Cc2ccc(-c3ccccc3)cc2)NC(=O)[C@H](CN2CCOCC2)NC(=O)CSC[C@@H](C(=O)NCC(N)=O)NC1=O [Example 627] ({CH2CO}-[Ala(morpholin-4-yl)][Bip][Bip(4'-NHCO-C6H4-3-CH2COOH)][Sar]PD[X21]VPVRLCG-NH2; thioether N-13)
- IC50 [1]: 50 to 200 nM

Compound: CC(C)C[C@@H]1NC(=O)[C@H](Cc2cnc[nH]2)NC(=O)[C@H](C(C)C)NC(=O)[C@@H]2CCCN2C(=O)[C@H](C(C)C)NC(=O)[C@@H](CCCNC(=N)NCc2ccccc2)NC(=O)[C@H](CC(=O)O)NC(=O)[C@H](Cc2ccccn2)NC(=O)CN(C)C(=O)[C@H](Cc2ccc(-c3ccc(NC(=O)c4nn(CC(=O)O)c5ccccc45)cc3)cc2)NC(=O)[C@H](Cc2ccc(-c3ccccc3)cc2)NC(=O)[C@H](CN2CCOCC2)NC(=O)CSC[C@@H](C(=O)NCC(N)=O)NC1=O [Example 628] ({CH2CO}-[Ala(morpholin-4-yl)][Bip][Bip(4'-NH)](Indazole3carbonyl(1-CH2COOH))[Sar][2Pal]D[dArg(ω-Bn)]VPVHLCG-NH2; thioether N-13)
- IC50: < 50 nM
